Source: US20060178359A1, “Tricyclic compound, process for producing the same, and use” (priority 2003, published 2006)

Biological target: T1, human CCR5 (Homo sapiens, UniProt P51681)
T1 construct: expressed in transfected cells
Assay: inhibition of [125I]-RANTES binding to CCR5/CHO cells
Conditions: test compound 1 μM, 100 pM [125I]-RANTES, room temperature, 40 minutes
Description: (1) Cloning of Human CCR5 Chemokine Receptor
Cloning of a CCR5 gene was conducted from human spleen cDNA by a PCR method. Using 0.5 ng of spleen cDNA (Toyobo Co., Ltd., QUICK-Clone cDNA) as a template, the PCR reaction was carried out in a DNA Thermal Cycler 480 (Perkin Elmer) using a TaKaRa EX Taq (Takara Shuzo Co., Ltd.) (reaction conditions: 30 cycles of treatments at 95° C. for 1 minute, at 60° C. for 1 minute, and at 75° C. for 5 minutes) by adding 25 pmol of primers, SEQ ID NO. 1 (sequence length: 34; sequence type: nucleic acid; number of chains: a single chain; topology: linear; sequence kind: other nucleic acid, synthetic DNA) described in Experimental Example (1) of WO 99/32100, and SEQ ID NO. 2 (sequence length: 34; sequence type: nucleic acid; number of chains: a single chain; topology: linear; sequence kind: other nucleic acid, synthetic DNA) described in Experimental Example (1) of WO 99/32100, respectively, which were prepared by referring to the base sequence of the CCR5 gene described by Samson et al. (Biochemistry 35 (11), 3362-3367 (1996)). The PCR products were subjected to agarose gel electrophoresis to collect DNA fragments of about 1.0 kb. Then, the CCR5 gene was cloned using an Original TA Cloning Kit (Funakoshi Co., Ltd.).
(2) Preparation of Plasmid for Expression of Human CCR5
The plasmids obtained above were digested with restriction enzymes XbaI (Takara Shuzo Co., Ltd.) and BamHI (Takara Shuzo Co., Ltd.), and subjected to agarose gel electrophoresis to collect DNA fragments of about 1.0 kb. The DNA fragments and a plasmid pcDNA3.1 (Funakoshi Co., Ltd.) for expression in animal cells, which was previously digested with XbaI and BamHI, were mixed and ligated by DNA Ligation Kit Ver. 2 (Takara Shuzo Co., Ltd.). Transformation of E. coli JM109 competent cells (Takara Shuzo Co., Ltd.) gave plasmid pCKR5.
(3) Introduction of the Plasmid for Expression of Human CCR5 into CHO-K1 Cells and Expression Thereof
CHO-K1 cells grown in a 750 ml tissue culture flask (Becton Dickinson) using Ham's F12 medium (Nihon Pharmaceutical Co., Ltd.) containing 10% fetal bovine serum (Lifetech Oriental) were collected from the flask by using 0.5 g/L trypsin-0.2 g/L EDTA (Lifetech Oriental). The cells were then washed with PBS (Lifetech Oriental), centrifuged (1000 rpm, 5 minutes), and suspended in PBS. Next, DNA was introduced into the cells using Gene Pulser (Bio-Rad Laboratories Inc.) under the following conditions. Namely, 8×10^6 cells and 10 μg of plasmid pCKR5 for expression of human CCR5 were added into a cuvette of a 0.4 cm-gap, and electroporation was carried out at an electric voltage of 0.25 kV and a capacitance of 960 μF. Subsequently, the cells were transferred into Ham's F12 medium containing 10% fetal bovine serum, and incubated for 24 hours. The cells were again collected, centrifuged, and then suspended in Ham's F12 medium containing 10% fetal bovine serum and Geneticin (Lifetech Oriental) at a concentration of 500 μg/ml. The suspension of cells was diluted to a concentration of 10^4 cells/ml, and inoculated on a 96-well plate (Becton Dickinson) to give Geneticin-resistant strains.
Subsequently, the Geneticin-resistant strains were cultured in the 96-well plate (Becton Dickinson), and then CCR5-expressing cells were selected from the resistant strains. […] The cells to which the ligand bound specifically, i.e., CCR5/CHO strains, were selected by measurement of radioactivity by γ-counter. […]

T1 sequence (P51681 whole entry): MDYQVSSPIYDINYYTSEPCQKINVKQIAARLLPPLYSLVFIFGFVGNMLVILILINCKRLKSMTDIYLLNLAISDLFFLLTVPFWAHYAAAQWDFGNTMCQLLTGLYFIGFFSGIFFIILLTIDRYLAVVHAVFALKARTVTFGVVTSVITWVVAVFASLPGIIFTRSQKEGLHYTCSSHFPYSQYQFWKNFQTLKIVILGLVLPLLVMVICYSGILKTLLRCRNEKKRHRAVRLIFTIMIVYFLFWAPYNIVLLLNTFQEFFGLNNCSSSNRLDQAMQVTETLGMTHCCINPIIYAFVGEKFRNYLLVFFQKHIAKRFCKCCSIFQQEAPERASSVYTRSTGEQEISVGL

Row | SMILES | Binding Inhibitory Ratio (%)
1 | CCCCOCCOc1ccc(-c2cnc3c(c2)C=C(C(=O)Nc2ccc([S@@+]([O-])Cc4cncn4CCC)cc2)CC[C@H]2CCCN32)cc1 [Compound 17, (8aS,Ss)-3-[4-(2-butoxyethoxy)phenyl]-N-[4-[[(1-propyl-1H-imidazol-5-yl)methyl]sulfinyl]phenyl]-7,8,8a,9,10,11-hexahydropyrido[3,2-g]pyrrolo[1,2-a]azocine-6-carboxamide] | 98
2 | CCCCOCCOc1ccc(-c2cnc3c(c2)C=C(C(=O)Nc2ccc([S@@+]([O-])Cc4cncn4CCC)cc2)CC[C@@H]2CCCN32)cc1 [Compound 16, (8aR,Ss)-3-[4-(2-butoxyethoxy)phenyl]-N-[4-[[(1-propyl-1H-imidazol-5-yl)methyl]sulfinyl]phenyl]-7,8,8a,9,10,11-hexahydropyrido[3,2-g]pyrrolo[1,2-a]azocine-6-carboxamide] | 94
3 | CCCCOCCOc1ccc(-c2cnc3c(c2)C=C(C(=O)Nc2ccc([S@@+]([O-])Cc4cncn4CCC)cc2)CCC2CCCN32)cc1 (some centres unmarked) [Compound 15, (Ss)-3-[4-(2-butoxyethoxy)phenyl]-N-[4-[[(1-propyl-1H-imidazol-5-yl)methyl]sulfinyl]phenyl]-7,8,8a,9,10,11-hexahydropyrido[3,2-g]pyrrolo[1,2-a]azocine-6-carboxamide] | 100
4 | CCCCOCCOc1ccc(-c2ccc3c(c2)C=C(C(=O)Nc2ccc([S+]([O-])Cc4cncn4CCC)cc2)CCC2CCCN32)cc1 (centres unmarked) [Compound 5, (Ss)-9-[4-(2butoxyethoxy)phenyl]-N-[4-[[(1-propyl-1H-imidazol-5-yl)methyl]sulfinyl]phenyl]-1,2,3,3a,4,5-hexahydropyrrolo[1,2-a][1]benzazocine-6-carboxamide] | 96
5 | CCCCOCCOc1ccc(-c2ccc3c(c2)C=C(C(=O)Nc2ccc([S+]([O-])Cc4cncn4CCC)cc2)CCC2CCCCN32)cc1 (centres unmarked) [Compound 8, (Ss)-10-[4-(2-butoxyethoxy)phenyl]-N-[[4-[(1-propyl-1H-imidazol-5-yl)methyl]sulfinyl]phenyl]-2,3,4,4a,5,6-hexahydropyrido[1,2-a][1]benzazocine-6-carboxamide] | 97
